Assay results published in patent US9133148B2, “Carbamate compounds and of making and using same” (Abide Therapeutics, Inc., priority 2012, dated 2015).

How the values were obtained:
FAAH [1] = target: T1, FAAH (Mus musculus (Mouse), UniProt O08914); experiment: In vitro competitive activity-based protein profiling (FP-Rh), mouse FAAH; type: biochemical; details: mouse brain membrane proteome
Protocol: (§1) In Vitro Competitive Activity-Based Protein Profiling.
(§2) Proteomes (mouse brain membrane fraction or cell lysates) ([…], 1.0 mg/mL total protein concentration) were preincubated with varying concentrations of inhibitors at 37° C. After 30 min, FP-Rh (1.0 μL, 50 μM in DMSO) was added and the mixture was incubated for another 30 min at 37° C. Reactions were quenched with SDS loading buffer (50 μL—4×) and run on SDS-PAGE.

MAGL [2] = target: T2, MAGL (Mus musculus (Mouse), UniProt O35678); experiment: In vitro competitive activity-based protein profiling (FP-Rh), mouse MAGL; type: biochemical; details: mouse brain membrane proteome
T2 sequence (O35678 whole entry): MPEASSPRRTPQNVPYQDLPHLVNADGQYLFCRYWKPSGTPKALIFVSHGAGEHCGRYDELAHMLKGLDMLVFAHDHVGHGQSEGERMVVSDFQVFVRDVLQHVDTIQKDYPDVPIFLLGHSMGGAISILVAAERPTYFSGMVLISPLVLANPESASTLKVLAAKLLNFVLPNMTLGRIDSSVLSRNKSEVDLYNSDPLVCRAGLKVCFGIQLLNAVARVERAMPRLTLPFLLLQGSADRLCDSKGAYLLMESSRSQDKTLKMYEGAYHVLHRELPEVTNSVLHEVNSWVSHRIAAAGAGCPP
Protocol: as §1, §2

ABHD6 [3] = target: T3, ABHD6 (Mus musculus (Mouse), UniProt Q8R2Y0); experiment: In vitro competitive activity-based protein profiling (FP-Rh), mouse ABHD6; type: biochemical; details: mouse brain membrane proteome
T3 sequence (Q8R2Y0 whole entry): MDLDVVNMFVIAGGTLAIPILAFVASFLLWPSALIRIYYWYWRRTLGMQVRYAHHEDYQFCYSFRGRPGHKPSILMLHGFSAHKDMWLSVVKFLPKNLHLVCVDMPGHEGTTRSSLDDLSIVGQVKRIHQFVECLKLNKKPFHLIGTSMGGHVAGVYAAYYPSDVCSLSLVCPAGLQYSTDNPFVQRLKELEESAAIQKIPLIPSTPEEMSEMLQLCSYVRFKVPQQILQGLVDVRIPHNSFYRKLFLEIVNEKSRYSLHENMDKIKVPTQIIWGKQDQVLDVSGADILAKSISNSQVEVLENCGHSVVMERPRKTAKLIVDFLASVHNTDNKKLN
Protocol: as §1, §2

Mouse brain MAGL = Mouse brain MAGL (Mus musculus (Mouse), UniProt O35678); experiment: Mouse brain proteomes from inhibitor treated mice (oral gavage, ABPP of brain MAGL); type: in vivo; details: for Mouse brain MAGL (% inhibition at 20 mg/kg, p.o.) / Mouse brain MAGL (% inhibition at 5 mg/kg, p.o.): 4 h following administration; for ED50: po
Sequence of Mouse brain MAGL (O35678 whole entry): as the sequence (O35678 whole entry) above
Protocol: Preparation of Mouse Brain Proteomes from Inhibitor Treated Mice.
Inhibitors were administered to wild-type C57Bl/6J by oral gavage in a vehicle of polyethylene glycol.

FAAH [4] = target: T1, FAAH; experiment: Competitive ABPP, % inhibition at 1 uM, FAAH; type: biochemical
Outline: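 Mouse brain membrane proteome or cell lysate (1.0 mg/mL protein) preincubated 30 min at 37° C with inhibitor, then labelled 30 min at 37° C with FP-Rh probe. Resolved by SDS-PAGE; activity from in-gel fluorescence intensity of FAAH band.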

ABHD6 [5] = target: T3, ABHD6; experiment: Competitive ABPP, % inhibition at 1 uM, ABHD6; type: biochemical
Protocol: as §1, §2

MAGL [6] = target: T2, MAGL; experiment: Competitive ABPP, % inhibition at 1 uM, MAGL; type: biochemical
Protocol: as §1, §2

Human MAGL = Human MAGL (Homo sapiens (Human), UniProt Q99685); experiment: Competitive ABPP with recombinant human MAGL expressed in HEK293T cells; type: biochemical; details: hMAGL in HEK293T cell lysates
Sequence of Human MAGL (Q99685 whole entry): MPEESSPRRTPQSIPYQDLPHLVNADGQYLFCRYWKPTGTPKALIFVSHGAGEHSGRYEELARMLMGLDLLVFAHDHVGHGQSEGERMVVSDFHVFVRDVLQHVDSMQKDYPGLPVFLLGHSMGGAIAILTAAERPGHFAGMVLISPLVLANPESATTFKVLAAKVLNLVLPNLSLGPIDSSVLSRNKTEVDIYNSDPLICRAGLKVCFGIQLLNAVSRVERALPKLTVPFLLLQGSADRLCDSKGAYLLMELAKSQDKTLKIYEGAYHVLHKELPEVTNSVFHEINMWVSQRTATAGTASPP
Protocol: as §2
Recombinant Expression of Human MAGL in HEK293T Cells.
Cell lysates were diluted with mock proteomes for use in competitive ABPP experiments.

T1 sequence (O08914 whole entry): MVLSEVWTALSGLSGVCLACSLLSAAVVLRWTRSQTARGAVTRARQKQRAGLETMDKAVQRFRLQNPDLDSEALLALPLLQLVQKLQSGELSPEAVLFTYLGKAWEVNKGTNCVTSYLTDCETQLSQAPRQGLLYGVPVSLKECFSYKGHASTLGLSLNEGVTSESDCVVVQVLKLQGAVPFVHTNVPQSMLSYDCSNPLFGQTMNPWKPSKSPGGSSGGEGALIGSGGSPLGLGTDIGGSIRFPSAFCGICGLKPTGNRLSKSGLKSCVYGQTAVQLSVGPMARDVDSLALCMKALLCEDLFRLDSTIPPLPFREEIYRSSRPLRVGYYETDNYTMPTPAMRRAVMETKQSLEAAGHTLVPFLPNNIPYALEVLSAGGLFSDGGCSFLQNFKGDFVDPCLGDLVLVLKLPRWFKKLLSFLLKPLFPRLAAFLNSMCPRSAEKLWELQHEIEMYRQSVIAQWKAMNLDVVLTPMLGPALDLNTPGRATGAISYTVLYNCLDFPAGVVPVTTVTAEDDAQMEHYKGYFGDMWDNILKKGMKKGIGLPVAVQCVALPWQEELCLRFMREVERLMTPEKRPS

Structure (SMILES) | IC50 (FAAH [1]; competitive ABPP) | IC50 (MAGL [2]; competitive ABPP) | IC50 (ABHD6 [3]; competitive ABPP) | IC50 (FAAH [1]; competitive ABPP (Table 7)) | IC50 (MAGL [2]; competitive ABPP (Table 7)) | IC50 (ABHD6 [3]; competitive ABPP (Table 7)) | Mouse brain MAGL (% inhibition at 5 mg/kg, p.o.) (Mouse brain MAGL) | IC50 (Human MAGL) | further results
CNC(=O)C(OC(=O)N1CCN(C(c2ccc(Cl)cc2)c2ccc(Cl)cc2)CC1)C(F)(F)F (centres unmarked) [Example 6j, 1,1,1-trifluoro-3-(methylamino)-3-oxopropan-2-yl 4-(bis(4-chlorophenyl)methyl)piperazine-1-carboxylate] | > 10000 nM | 100 to 1000 nM | < 100 nM |  |  |  |  |  | Mouse brain MAGL (% inhibition at 20 mg/kg, p.o.) (Mouse brain MAGL): >95%
O=C(OC(C(F)(F)F)C(F)(F)F)N1CCN(Cc2ccc(Cl)cc2N2CCN3CCC[C@@H]3C2)CC1 [Example 9bi, (R)-1,1,1,3,3,3-hexafluoropropan-2-yl 4-(4-chloro-2-(hexahydropyrrolo[1,2-a]pyrazin-2(1H)-yl)benzyl)piperazine-1-carboxylate] |  |  |  | > 10000 nM | < 100 nM | > 1000 nM | 50% |  | 
O=C(OC(C(F)(F)F)C(F)(F)F)N1CCN(Cc2ccc(Cl)cc2N2CCC2)CC1 [Example 9ay, 1,1,1,3,3,3-hexafluoropropan-2-yl 4-(2-(azetidin-1-yl)-4-chlorobenzyl)piperazine-1-carboxylate] |  |  |  | > 10000 nM | < 100 nM | > 1000 nM | 50% |  | 
O=C(OC(C(F)(F)F)C(F)(F)F)N1CCN(Cc2cc(Cl)ccc2N2CCCC2)CC1 [Example 9n, 1,1,1,3,3,3-hexafluoropropan-2-yl 4-[[5-chloro-2-(pyrrolidin-1-yl)phenyl]methyl]piperazine-1-carboxylate] |  |  |  | > 10000 nM | < 100 nM | > 1000 nM | 75% |  | inhibition at 1 µM (FAAH [4]): < 25%; inhibition at 1 µM (ABHD6 [5]): 25 to 75%; inhibition at 1 µM (MAGL [6]): 25 to 75%
CS(=O)(=O)N1CCN(c2cc(Cl)ccc2CN2CCN(C(=O)OC(C(F)(F)F)C(F)(F)F)CC2)CC1 [Example 9bj, 1,1,1,3,3,3-hexafluoropropan-2-yl 4-(4-chloro-2-(4-(methylsulfonyl)piperazin-1-yl)benzyl)piperazine-1-carboxylate] |  |  |  | > 10000 nM | < 100 nM | 100 to 1000 nM | 75% |  | 
CC(=O)NC1CCN(c2cc(Cl)ccc2CN2CCN(C(=O)OC(C(F)(F)F)C(F)(F)F)CC2)C1 (centres unmarked) [Example 9af, 1,1,1,3,3,3-hexafluoropropan-2-yl 4-(2-(3-acetamidopyrrolidin-1-yl)-4-chlorobenzyl)piperazine-1-carboxylate] |  |  |  | > 10000 nM | 100 to 1000 nM | > 1000 nM |  |  | ED50 (Mouse brain MAGL): < 4 mg/kg
Cc1ccc(S(=O)(=O)N2CCN(C(=O)OC(C(F)(F)F)C(F)(F)F)CC2)cc1 [Example 4b, 1,1,1,3,3,3-hexafluoropropan-2-yl 4-tosylpiperazine-1-carboxylate] | > 10000 nM | < 100 nM | 100 to 1000 nM |  |  |  |  | < 0.1 µM | 
O=C(OC(C(F)(F)F)C(F)(F)F)N1CCN(S(=O)(=O)c2ccc3ccccc3c2)CC1 [Example 4h, 1,1,1,3,3,3-hexafluoropropan-2-yl 4-(naphthalen-2-ylsulfonyl)-piperazine-1-carboxylate] | > 10000 nM | < 100 nM | > 1000 nM |  |  |  |  | > 1 µM | 
O=C(OC(C(F)(F)F)C(F)(F)F)N1CCN(Cc2cccc(Cl)c2N2CCCC2)CC1 [Example 9ar, 1,1,1,3,3,3-hexafluoropropan-2-yl 4-(3-chloro-2-(pyrrolidin-1-yl)benzyl)piperazine-1-carboxylate] |  |  |  | > 10000 nM | < 100 nM | > 1000 nM | 75% |  | 
O=C(OC(C(F)(F)F)C(F)(F)F)N1CCC(=C(c2ccc3c(c2)OCO3)c2ccc3c(c2)OCO3)CC1 [Example 1d, 1,1,1,3,3,3-hexafluoropropan-2-yl 4-(bis(benzo[d][1,3]dioxol-5-yl)methylene)piperidine-1-carboxylate] | > 10000 nM | < 100 nM | 100 to 1000 nM |  |  |  |  | < 0.1 µM | 
O=C(OC(C(F)(F)F)C(F)(F)F)N1CCN(Cc2ccc(Cl)cc2N2CCC3(CCNC3=O)CC2)CC1 [Example 9ax, 1,1,1,3,3,3-hexafluoropropan-2-yl 4-(4-chloro-2-(1-oxo-2,8-diazaspiro[4.5]decan-8-yl)benzyl)piperazine-1-carboxylate] |  |  |  | > 10000 nM | < 100 nM | > 1000 nM | 75% |  | 
O=C(OC(C(F)(F)F)C(F)(F)F)N1CCN(C(=O)c2ccc(-c3ccccc3)cc2)CC1 [Example 3c, 1,1,1,3,3,3-hexafluoropropan-2-yl 4-([1,1′-biphenyl]-4-carbonyl)-piperazine-1-carboxylate] | > 10000 nM | > 1000 nM | > 1000 nM |  |  |  |  | > 1 µM | 
O=C(OC(C(F)(F)F)C(F)(F)F)N1CCN(Cc2cccc(F)c2N2CCOCC2)CC1 [Example 9d, 1,1,1,3,3,3-hexafluoropropan-2-yl 4-[[3-fluoro-2-(morpholin-4-yl)phenyl]methyl]piperazine-1-carboxylate] |  |  |  | > 10000 nM | < 100 nM | > 1000 nM |  |  | ED50 (Mouse brain MAGL): < 4 mg/kg
Cc1ccccc1S(=O)(=O)N1CCN(C(=O)OC(C(F)(F)F)C(F)(F)F)CC1 [Example 4g, 1,1,1,3,3,3-hexafluoropropan-2-yl 4-(o-tolylsulfonyl)piperazine-1-carboxylate] | > 10000 nM | 100 to 1000 nM | 100 to 1000 nM |  |  |  |  | 0.1 to 1 µM | 
O=C(OC(C(F)(F)F)C(F)(F)F)N1CCN(Cc2ccc(-c3ccccc3)cc2)CC1 [Example 3b, 1,1,1,3,3,3-hexafluoropropan-2-yl 4-([1,1′-biphenyl]-4-ylmethyl)-piperazine-1-carboxylate] | > 10000 nM | 100 to 1000 nM | > 1000 nM |  |  |  |  | < 0.1 µM | 
Cc1nc(-c2cccc(CN(C)C(=O)OC(C(F)(F)F)C(F)(F)F)c2)no1 [Example 3j, 1,1,1,3,3,3-hexafluoropropan-2-yl methyl(3-(5-methyl-1,2,4-oxadiazol-3-yl)benzyl)carbamate] | > 10000 nM | 100 to 1000 nM | 100 to 1000 nM |  |  |  |  | < 0.1 µM | 
CC(C)n1cc(CN2CCN(C(=O)OC(C(F)(F)F)C(F)(F)F)CC2)c(-c2ccccc2Cl)n1 [Example 10i, 1,1,1,3,3,3-hexafluoropropan-2-yl 4-[[3-(2-chlorophenyl)-1-(propan-2-yl)-1H-pyrazol-4-yl]methyl]piperazine-1-carboxylate] |  |  |  | > 10000 nM | < 100 nM | 100 to 1000 nM | 75% |  | 
CC(C)c1cc(C(C)C)c(S(=O)(=O)N2CCN(C(=O)OC(C(F)(F)F)C(F)(F)F)CC2)c(C(C)C)c1 [Example 4f, 1,1,1,3,3,3-hexafluoropropan-2-yl 4-((2,4,6-triisopropylphenyl)-sulfonyl)piperazine-1-carboxylate] | > 10000 nM | > 1000 nM | > 1000 nM |  |  |  |  | > 1 µM | 
O=C(OC(C(F)(F)F)C(F)(F)F)N1CCN(Cc2ccc(Cl)cc2N2CCC3(CCOCC3)C2)CC1 [Example 9av, 1,1,1,3,3,3-hexafluoropropan-2-yl 4-(4-chloro-2-(8-oxa-2-azaspiro[4.5]decan-2-yl)benzyl)piperazine-1-carboxylate] |  |  |  | > 10000 nM | < 100 nM | > 1000 nM | 75% |  | 
O=C(OC(C(F)(F)F)C(F)(F)F)N1CCN(Cc2ccc(Cl)cc2N2Cc3cccnc3C2)CC1 [Example 9bh, 1,1,1,3,3,3-hexafluoropropan-2-yl 4-(4-chloro-2-(5H-pyrrolo[3,4-b]pyridin-6(7H)-yl)benzyl)piperazine-1-carboxylate] |  |  |  | > 10000 nM | < 100 nM | 100 to 1000 nM | 25% |  | 
COC(c1ccc2c(c1)OCO2)(c1ccc2c(c1)OCO2)C1CCN(C(=O)OC(C(F)(F)F)C(F)(F)F)CC1 [Example 1b, 1,1,1,3,3,3-hexafluoropropan-2-yl 4-(bis(benzo[d][1,3]dioxol-5-yl)(methoxy)methyl)piperidine-1-carboxylate] | > 10000 nM | < 100 nM | 100 to 1000 nM |  |  |  |  |  | Mouse brain MAGL (% inhibition at 20 mg/kg, p.o.) (Mouse brain MAGL): 13%
N#Cc1ccc(S(=O)(=O)N2CCN(C(=O)OC(C(F)(F)F)C(F)(F)F)CC2)cc1 [Example 4d, 1,1,1,3,3,3-hexafluoropropan-2-yl 4-((4-cyanophenyl)sulfonyl)-piperazine-1-carboxylate] | > 10000 nM | 100 to 1000 nM | > 1000 nM |  |  |  |  | 0.1 to 1 µM | 
O=C(OC(C(F)(F)F)C(F)(F)F)N1CCN(Cc2ccc(-c3ccccc3)cc2C(=O)N2CCCC2)CC1 [Example 11y, 1,1,1,3,3,3-hexafluoropropan-2-yl 4-([4-phenyl-2-[(pyrrolidin-1-yl)carbonyl]phenyl]methyl)piperazine-1-carboxylate] |  |  |  | > 10000 nM | < 100 nM | > 1000 nM | 75% |  | 
